Test system: active caspases
Assay: [125I]-M808 labeling of active caspases in rat tissue protein extracts
Assay type: binding
Description: Tissues (rat liver, kidney, brain, thymus, mouse thymus) were either frozen or processed within 20 minutes of their removal. Rat tissues and cultured cells were homogenized in ice cold cell lysis buffer (50 mM Tris-Cl pH 7.5, 2 mM EDTA, 1% NP-40) supplemented with 5 mM DTT and Complete protease inhibitor cocktail (Roche). Thymi from mice injected with [^125I]-M808 were homogenized in lysis buffer supplemented with 25 μM of M808. Nuclear debris was removed by centrifugation at 13000 rpm for 10 min and the soluble fraction quantitated by Bradford assay (Bio-Rad). Caspase-3 like activity was determined with the fluorogenic substrate Ac-DEVD-AMC as described by Roy et al. (2001) Proc. Nat. Acad. Sci. USA 98: 6132-6137.
The determination of caspase activity by [^125I]-M808 labeling was performed by pre-incubating purified recombinant human caspase-3 with indicated amounts of caspase inhibitor (M791) or vehicle (DMSO), for 1 hour at 25° C. in ICE buffer III (50 mM Hepes-KOH pH 7.0, 0.1% CHAPS, 10% sucrose, 2 mM EDTA), supplemented with 5 mM DTT. [^125I]-M808 was added to a final concentration of 1.25 μM and incubated for 5 min at 25° C. Active caspases in tissue or cell extracts were labeled by incubating 60-80 μg of lysate with [^125I]-M808 for 15 minutes at 25° C. […]

Structure (SMILES)	effect on [125I]-M808 labeling when added to extract prior to probe (granzyme-B treated rat tissue extracts, FIG. 2A lanes 6-9)	recognition of active caspases in injured tissue extracts (HI neonatal rat brain, infarcted rat heart, septic rat thymi extracts)
COc1ccc(-c2nc(C)no2)cc1CC(=O)N[C@H](C(=O)N[C@@H](CC(=O)O)C(=O)CSCc1ccccc1)C(C)C [Example M791, (3S)-5-(benzylthio)-3-[(N-{[2-methoxy-5-(3-methyl-1,2,4-oxadiazol-5-yl)phenyl]acetyl}-L-valyl)amino]4-oxopentanoic acid]	No radiolabeling (lanes 6-8) or strongly reduced labeling (lane 9)	–
COc1ccc(I)cc1CC(=O)N[C@H](C(=O)NC(CC(=O)O)C(=O)CF)C(C)C (stereo partly drawn) [[^125I]-M808, 5-fluoro-3-({N-[(5-iodo-2-methoxyphenyl)acetyl]-L-valyl}amino)-4-oxopentanoic acid]	–	specifically recognizes active caspases in several types of injured tissues
